From patent US6835551B2, “Basophil degranulation test” (Orpegen Pharma GmbH, priority 1999, dated 2004)

Tested on: basophilic granulocytes
Settings: fMLP 10^-7 M, 30 minutes at 37° C., typical values
Experimental: Peripheral blood (heparinised) of the patient is incubated with various concentrations of the suspected allergen at 37° C. […] The detection is carried out by a three colour immunofluorescence and flow cytometric analysis. The chemotactic peptide fMLP serves as a positive control and a buffer solution (PBS) is used as the negative control.
The sample to be examined is divided into aliquots of 100 μl in each case. In the case of high leukocyte numbers (WBC of 10-20,000 C/μl) it is possible to use a smaller sample volume e.g. 50 μl. Multiple test mixtures are not necessary.
ALK-depot SQ (Scherax) mixture of 6 grasses+rye is used at concentrations of 10,000, 1,000, 100 and 10 U/ml. ALK-prick SQ (Scherax) bee venom and ALK-prick SQ (Scherax) wasp venom are used at concentrations of 10, 1, 0.1 and 0.01 μg/ml. Latex allergens, PPL (allergopen) and MDM (allergopen) are used in dilutions of 1:10, 1:100 and 1:1,000. Penicillin Grünenthal is used at concentrations of 100, 10, 1 and 0.1 μg/ml. PBS serves as a negative control and fMLP at a concentration of 10^−7 M (i.e. 1:2,000 PBS) is used as the positive control. A sample from a healthy normal test person is also assayed as a further control.
100 μl of each of the allergen dilutions is added to an aliquot of the sample, mixed and incubated for 30 minutes at 37° C. in a water bath. Then the mixtures are placed on ice.
The following antibody solutions are then added.
a) 20 μl anti gp55-FITC (prediluted)
b) 20 μl anti IgE-PE (prediluted)
c) 10 μl anti CD45-cychrome or 20 μl CD45-PerCP
After antibody addition it is well mixed (vortex) and incubated for 20 minutes on ice while protected from light.
2 ml FACS lysing solution (erythrocyte lysis and leukocyte fixation) is then added, it is mixed (vortex) and incubated for 10 minutes at room temperature while protected from light. Subsequently it is centrifuged for 5 min at 1300 rpm or 300 g and decanted.
The cells are washed by adding 3 ml wash solution (PBS), centrifuging (5 min at 1300 rpm or 300 g) and decanting.
The sample is measured by flow cytometry for example on an FACS scan instrument. The stability of the measured sample is presumably ≧2 hours on flaked ice in the dark.
In the SSC/IgE dot plot, a region is set around the cells with low and high side scattered light and strong IgE expression. […] The markers are set such that the evaluation region covers the region of the gp55 positive basophils (the PBS test mixture serves as a negative control). The mean value FL1 is observed in all (also gp55-negative) cell populations. If possible, at least 1000 cells of the subclass of interest (in this case basophils) are recorded. […] It is therefore possible to view the percentage which is adequate for evaluating the test result.

fMLP
% basos (heparinised whole blood): 2.35%
mean gp55 (mean FL1 of all basophils): 369
mean CD45 (mean fluorescence (CD45 expression density) of basophils): 349
mean IgE (mean fluorescence (IgE density) of basophils): 981
% gp55 (percentage of gp55-positive basophilic granulocytes): 30.6%
